Laboratory results published in patent publication US10022354B2, “Pyrrolidine amide compounds as histone demethylase inhibitors” (GENENTECH, INC., priority 2014, dated 2018).

Each compound was assayed against full length KDM5A enzyme (Homo sapiens (Human), UniProt P29375) (assay: KDM5 Enzyme Assay (KDM5A HTRF)). Details: 2 nM full length KDM5A, 100 nM H3K4Me3 peptide, 1 uM 2-OG, 30 min room temperature.
Assay type: biochemical
Procedure: Full length KDM5A enzyme was expressed and purified inhouse. Biotin-H3K4me3 peptide was purchased from New England Biolabs. HTRF reagents (containing Eu-labeled H3K4me1-2 antibody, and streptavidin-XL665) were purchased from Cis-Bio International. Plates were read on an Envision multi-label plate reader (Perkin Elmer).
The HTRF assay mixture contained 2 nM full length KDM5A enzyme, 100 nM H3K4Me3 peptide substrate, 1 uM 2-OG, 100 uM Fe^2+, 500 uM ascorbate. 50 mM HEPES pH 7.0 buffer, 0.01% Triton-X 100, 2 mM DTT, 0.25% DMSO at a final volume of 10 uL.
The plates were incubated at room temperature for 60 minutes and then read in the Envision plate reader.

full length KDM5A enzyme, sequence (P29375 whole entry): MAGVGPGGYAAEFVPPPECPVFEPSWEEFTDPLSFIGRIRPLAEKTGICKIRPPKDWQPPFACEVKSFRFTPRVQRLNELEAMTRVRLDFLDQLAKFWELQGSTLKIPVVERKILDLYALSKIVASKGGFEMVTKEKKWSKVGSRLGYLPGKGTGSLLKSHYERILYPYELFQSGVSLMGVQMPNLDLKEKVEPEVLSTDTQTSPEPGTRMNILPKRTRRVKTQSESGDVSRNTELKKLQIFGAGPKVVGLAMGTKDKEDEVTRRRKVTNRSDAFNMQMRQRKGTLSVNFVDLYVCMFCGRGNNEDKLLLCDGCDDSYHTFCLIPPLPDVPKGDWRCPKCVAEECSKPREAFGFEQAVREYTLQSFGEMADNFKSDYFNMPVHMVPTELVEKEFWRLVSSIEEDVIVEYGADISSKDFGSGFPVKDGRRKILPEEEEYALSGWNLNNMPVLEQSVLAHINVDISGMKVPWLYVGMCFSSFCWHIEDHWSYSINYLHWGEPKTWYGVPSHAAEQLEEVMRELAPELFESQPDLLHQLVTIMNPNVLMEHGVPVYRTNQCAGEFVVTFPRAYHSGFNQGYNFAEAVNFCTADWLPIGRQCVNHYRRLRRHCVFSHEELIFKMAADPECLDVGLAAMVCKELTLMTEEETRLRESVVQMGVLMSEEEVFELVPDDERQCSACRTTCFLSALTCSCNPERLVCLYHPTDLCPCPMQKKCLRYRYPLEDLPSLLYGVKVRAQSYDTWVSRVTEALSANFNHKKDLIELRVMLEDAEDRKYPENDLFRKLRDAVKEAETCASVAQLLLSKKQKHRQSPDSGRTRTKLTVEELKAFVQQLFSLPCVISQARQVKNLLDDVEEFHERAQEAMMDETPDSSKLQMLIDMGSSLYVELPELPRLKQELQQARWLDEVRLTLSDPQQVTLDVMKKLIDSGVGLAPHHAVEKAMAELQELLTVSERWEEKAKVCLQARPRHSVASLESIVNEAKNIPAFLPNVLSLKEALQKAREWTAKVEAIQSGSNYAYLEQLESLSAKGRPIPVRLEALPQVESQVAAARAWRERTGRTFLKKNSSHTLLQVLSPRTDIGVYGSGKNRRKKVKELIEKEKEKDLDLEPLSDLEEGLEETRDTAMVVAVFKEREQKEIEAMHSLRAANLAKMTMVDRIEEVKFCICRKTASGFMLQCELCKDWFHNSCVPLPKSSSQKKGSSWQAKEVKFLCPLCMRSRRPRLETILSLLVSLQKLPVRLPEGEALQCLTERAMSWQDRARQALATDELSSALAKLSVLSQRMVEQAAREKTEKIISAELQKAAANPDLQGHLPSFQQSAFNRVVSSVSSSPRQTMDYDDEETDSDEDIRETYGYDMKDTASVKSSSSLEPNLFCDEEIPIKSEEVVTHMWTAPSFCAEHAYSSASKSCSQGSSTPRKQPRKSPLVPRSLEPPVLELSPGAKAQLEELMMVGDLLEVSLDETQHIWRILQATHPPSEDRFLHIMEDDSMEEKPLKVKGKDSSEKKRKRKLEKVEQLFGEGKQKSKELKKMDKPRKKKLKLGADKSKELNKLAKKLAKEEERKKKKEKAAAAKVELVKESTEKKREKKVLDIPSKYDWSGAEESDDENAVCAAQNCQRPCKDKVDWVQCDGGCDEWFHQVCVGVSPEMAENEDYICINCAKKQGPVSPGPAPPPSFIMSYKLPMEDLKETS

**Q.** With `CC(C)c1cc(C(=O)N2CCC(NC(=O)C3(Oc4ccccc4)CC3)C2)[nH]n1` (centres unmarked) [Example 195] as the compound, how does the IC50 read?
**A.** 3.5 nM

**Q.** For `Cc1cn(C2CCN(C(=O)c3cc(C(C)C)[nH]n3)C2)nn1` (centres unmarked) [Example 37, (5-Isopropyl-1H-pyrazol-3-yl)(3-(4-methyl-1H-1,2,3-triazol-1-yl)pyrrolidin-1-yl)methanone], which IC50 is on record?
**A.** 5.8 nM

**Q.** For `CC(C)c1cc(C(=O)N2CCC(NC(=O)c3cccc(Cl)c3)C2)[nH]n1` (centres unmarked) [Example 110], which IC50 is on record?
**A.** 0.25 nM

**Q.** How did the IC50 turn out when `O=C(NC1CCN(C(=O)c2cc(Br)n[nH]2)C1)C1CC1` (centres unmarked) [Example 205] was run?
**A.** 14 nM

**Q.** For `CC(C)c1cc(C(=O)N2CC[C@H](NC(=O)[C@H]3C[C@H]3F)C2)[nH]n1` [Example 230], which IC50 is on record?
**A.** 0.14 nM

**Q.** With `Cc1nn(C2CCN(C(=O)c3cc(C(C)C)n[nH]3)C2)cc1-c1ccccc1` (centres unmarked) [Example 236] as the compound, how does the IC50 read?
**A.** 0.32 nM

**Q.** With `CC(C)c1cc(C(=O)N2CCC(NC(=O)c3ccn(C)n3)C2)[nH]n1` (centres unmarked) [Example 112] as the compound, how does the IC50 read?
**A.** 0.066 nM

**Q.** For `CNC(=O)c1cc(C)nc(C2CCN(C(=O)c3cc(C(C)C)n[nH]3)C2)c1` (centres unmarked) [Example 53], which IC50 is on record?
**A.** 4.2 nM

**Q.** Which IC50 does the source give for `Cc1cc(-c2ccoc2)cc(C2CCN(C(=O)c3cc(C(C)C)n[nH]3)C2)n1` (centres unmarked) [Example 70] here?
**A.** 0.27 nM

**Q.** How did the IC50 turn out when `CC(C)c1cc(C(=O)N2CCC(NC(=O)c3cccnc3)C2)[nH]n1` (centres unmarked) [Example 109] was run?
**A.** 0.76 nM

**Q.** How did the IC50 turn out when `CC(C)c1cc(C(=O)N2CCC(NC(=O)c3cccc(F)c3)C2)[nH]n1` (centres unmarked) [Example 156] was run?
**A.** 0.074 nM

**Q.** With `CC(C)c1cc(C(=O)N2CCC(NC(=O)C3CCCOC3)C2)[nH]n1` (centres unmarked) [Example 166] as the compound, how does the IC50 read?
**A.** 0.52 nM

**Q.** Which IC50 does the source give for `CCCc1cc(C(=O)N2CCC(c3cc(-c4cnn(C)c4)cc(C)n3)C2)[nH]n1` (centres unmarked) [Example 46] here?
**A.** 0.54 nM

**Q.** With `COc1cccc(OC)c1C(=O)NC1CCN(C(=O)c2cc(C(C)C)n[nH]2)C1` (centres unmarked) [Example 139] as the compound, how does the IC50 read?
**A.** 3 nM

**Q.** With `CC(C)c1cc(C(=O)N2CCC(NC(=O)c3ccn(-c4cnn(C)c4)n3)C2)[nH]n1` (centres unmarked) [Example 196] as the compound, how does the IC50 read?
**A.** 0.11 nM

**Q.** Which IC50 does the source give for `CC(C)c1cc(C(=O)N2CCC(NC(=O)COc3ccccc3)C2)[nH]n1` (centres unmarked) [Example 169] here?
**A.** 3.1 nM

**Q.** Which IC50 does the source give for `Cc1cc(C)n(C2CCN(C(=O)c3cc(C(C)C)n[nH]3)C2)n1` (centres unmarked) [Example 233] here?
**A.** 12 nM

**Q.** Which IC50 does the source give for `Cc1cc(-c2cnn(CCC#N)c2)cc(C2CCN(C(=O)c3cc(C(C)C)n[nH]3)C2)n1` (centres unmarked) [Example 98] here?
**A.** 0.32 nM

**Q.** How did the IC50 turn out when `Cc1cc(-c2ccccn2)cc(C2CCN(C(=O)c3cc(C(C)C)n[nH]3)C2)n1` (centres unmarked) [Example 6, (3-isopropyl-1H-pyrazol-5-yl)(3-(6′-methyl-[2,4′-bipyridin]-2′-yl)pyrrolidin-1-yl)methanone] was run?
**A.** 1 nM

**Q.** How did the IC50 turn out when `CC(C)c1cc(C(=O)N2CCC(c3ccn(C(C)C)c(=O)n3)C2)[nH]n1` (centres unmarked) [Example 14, 1-Isopropyl-4-(1-(3-isopropyl-1H-pyrazole-5-carbonyl)pyrrolidin-3-yl)pyrimidin-2(1H)-one] was run?
**A.** 0.19 nM

**Q.** For `O=C(NC1CCN(C(=O)c2c[nH]cn2)C1)C1CC1` (centres unmarked) [Example 203], which IC50 is on record?
**A.** 6.2 nM

**Q.** Which IC50 does the source give for `Cc1cc(-c2cnn(C)c2)cc(C2CCN(C(=O)c3cc(C4CC4)n[nH]3)C2)n1` (centres unmarked) [Example 47] here?
**A.** 0.4 nM

**Q.** For `Cc1cc(OC(C)C)cc(C2CCN(C(=O)c3cc(C(C)C)n[nH]3)C2)n1` (centres unmarked) [Example 9, (3-(4-Isopropoxy-6-methylpyridin-2-yl)pyrrolidin-1-yl)(3-isopropyl-1H-pyrazol-5-yl)methanone], which IC50 is on record?
**A.** 8.6 nM

**Q.** How did the IC50 turn out when `Cc1cc(Oc2ccccc2)cc(C2CCN(C(=O)c3cc(C(C)C)n[nH]3)C2)n1` (centres unmarked) [Example 7, (3-Isopropyl-1H-pyrazol-5-yl)(3-(6-methyl-4-phenoxypyridin-2-yl)pyrrolidin-1-yl)methanone] was run?
**A.** 0.13 nM

**Q.** With `Cc1cc(C(=O)N2CCC(c3cc(-c4cnn(C)c4)cc(C)n3)C2)[nH]n1` (centres unmarked) [Example 44] as the compound, how does the IC50 read?
**A.** 2.7 nM

**Q.** `COC(C)c1cc(C(=O)N2CCC(NC(=O)C3CC3)C2)[nH]n1` (centres unmarked) [Example 211] was tested. Which IC50 did it give?
**A.** 2.6 nM

**Q.** With `CC(C)c1cc(C(=O)N2CCC(NC(=O)C3CCOC3)C2)[nH]n1` (centres unmarked) [Example 132] as the compound, how does the IC50 read?
**A.** 0.12 nM

**Q.** Which IC50 does the source give for `CC(C)c1cc(C(=O)N2CCC(n3cc(N)cn3)C2)[nH]n1` (centres unmarked) [Example 38, (3-(4-amino-1H-pyrazol-1-yl)pyrrolidin-1-yl)(3-isopropyl-1H-pyrazol-5-yl)methanone] here?
**A.** 1.8 nM

**Q.** For `CC(C)c1cc(C(=O)N2CCC(NC(=O)C3CC3C)C2)[nH]n1` (centres unmarked) [Example 130], which IC50 is on record?
**A.** 0.14 nM

**Q.** With `Cc1cc(-c2ccc(C#N)cc2)cc(C2CCN(C(=O)c3cc(C(C)C)n[nH]3)C2)n1` (centres unmarked) [Example 68] as the compound, how does the IC50 read?
**A.** 0.29 nM

**Q.** For `COc1ccc(C(=O)NC2CCN(C(=O)c3cc(C(C)C)n[nH]3)C2)cc1` (centres unmarked) [Example 160], which IC50 is on record?
**A.** 0.27 nM

**Q.** For `Cc1cc(C2=CCCC2)cc(C2CCN(C(=O)c3cc(C(C)C)n[nH]3)C2)n1` (centres unmarked) [Example 75], which IC50 is on record?
**A.** 0.54 nM

**Q.** For `CC(C)CC(=O)NC1CCN(C(=O)c2cc(C(C)C)n[nH]2)C1` (centres unmarked) [Example 125], which IC50 is on record?
**A.** 0.32 nM

**Q.** Which IC50 does the source give for `CC(C)c1cc(C(=O)N2CCC(NC(=O)C(C)(C)C)C2)[nH]n1` (centres unmarked) [Example 168] here?
**A.** 0.2 nM

**Q.** For `CC(=O)Nc1cc(C)nc(C2CCN(C(=O)c3cc(C(C)C)n[nH]3)C2)c1` (centres unmarked) [Example 54], which IC50 is on record?
**A.** 1.7 nM

**Q.** With `CC(C)c1cc(C(=O)N2CCC(c3ccncn3)C2)[nH]n1` (centres unmarked) [Example 100] as the compound, how does the IC50 read?
**A.** 9.8 nM

**Q.** `COc1ccc(-c2cc(C)nc(C3CCN(C(=O)c4cc(C(C)C)n[nH]4)C3)c2)cc1` (centres unmarked) [Example 85] was tested. Which IC50 did it give?
**A.** 0.27 nM

**Q.** `Cc1cc(-c2ccn(C)n2)cc(C2CCN(C(=O)c3cc(C(C)C)n[nH]3)C2)n1` (centres unmarked) [Example 93] was tested. Which IC50 did it give?
**A.** 0.79 nM

**Q.** With `CC(C)c1cc(C(=O)N2CC[C@H](NC(=O)[C@@H]3C[C@@H]3F)C2)[nH]n1` [Example 229] as the compound, how does the IC50 read?
**A.** 0.11 nM

**Q.** How did the IC50 turn out when `CC(C)c1cc(C(=O)N2CCC(n3cc(Br)c(C#N)n3)C2)[nH]n1` (centres unmarked) [Example 240] was run?
**A.** 2.1 nM

**Q.** How did the IC50 turn out when `Cc1ccc(-c2cc(C)nc(C3CCN(C(=O)c4cc(C(C)C)n[nH]4)C3)c2)cc1` (centres unmarked) [Example 3, (3-Isopropyl-1H-pyrazol-5-yl)(3-(6-methyl-4-(p-tolyl)pyridin-2-yl)pyrrolidin-1-yl) methanone] was run?
**A.** 0.22 nM

**Q.** `Cc1cc(-c2cccc(C#N)c2)cc(C2CCN(C(=O)c3cc(C(C)C)n[nH]3)C2)n1` (centres unmarked) [Example 67] was tested. Which IC50 did it give?
**A.** 0.35 nM

**Q.** Which IC50 does the source give for `Cc1cc(NS(=O)(=O)c2ccccc2)cc(C2CCN(C(=O)c3cc(C(C)C)n[nH]3)C2)n1` (centres unmarked) [Example 57] here?
**A.** 17 nM

**Q.** How did the IC50 turn out when `CCC(C)c1cc(C(=O)N2CC[C@@H](NC(=O)[C@H]3C[C@H]3F)C2)[nH]n1` (some centres unmarked) [Example 189] was run?
**A.** 0.038 nM

**Q.** For `Cc1cc(-c2cnn(CCO)c2)cc(C2CCN(C(=O)c3cc(C(C)C)n[nH]3)C2)n1` (centres unmarked) [Example 91], which IC50 is on record?
**A.** 0.41 nM

**Q.** How did the IC50 turn out when `CC(C)c1cc(C(=O)N2CCC(NC(=O)C3(C#N)CC3)C2)[nH]n1` (centres unmarked) [Example 193] was run?
**A.** 0.41 nM

**Q.** `COc1ccc(C2CCN(C(=O)c3cc(C(C)C)n[nH]3)C2)nc1` (centres unmarked) [Example 103] was tested. Which IC50 did it give?
**A.** 1.6 nM

**Q.** With `Cc1cc(NC(=O)c2ccccc2)cc(C2CCN(C(=O)c3cc(C(C)C)n[nH]3)C2)n1` (centres unmarked) [Example 55] as the compound, how does the IC50 read?
**A.** 1.2 nM

**Q.** For `CC(C)c1cc(C(=O)N2CC[C@@H](NC(=O)C3(C#N)CC3)C2)[nH]n1` [Example 226], which IC50 is on record?
**A.** 0.23 nM

**Q.** With `CC(C)c1cc(C(=O)N2CCC(NC(=O)Nc3ccccc3)C2)[nH]n1` (centres unmarked) [Example 114] as the compound, how does the IC50 read?
**A.** 0.28 nM

**Q.** `COc1ccccc1-c1cc(C)nc(C2CCN(C(=O)c3cc(C(C)C)n[nH]3)C2)c1` (centres unmarked) [Example 72] was tested. Which IC50 did it give?
**A.** 0.24 nM

**Q.** Which IC50 does the source give for `CC(C)c1cc(C(=O)N2CCC(NC(=O)C3(c4ccccc4)CC3)C2)[nH]n1` (centres unmarked) [Example 138] here?
**A.** 0.26 nM

**Q.** Which IC50 does the source give for `CC(C)Cc1cc(C(=O)N2CCC(NC(=O)C3CC3)C2)[nH]n1` (centres unmarked) [Example 206] here?
**A.** 0.3 nM
